From ChEMBL document CHEMBL1201862, “PubChem BioAssay data set” (2004)
The source made the active and inactive calls.

Assays:
[1] = molecular target: Tyrosine-protein kinase SYK (Homo sapiens, UniProt P43405); type: functional
[2] = molecular target: Tyrosine-protein kinase Lyn (Homo sapiens, UniProt P07948); type: functional;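 note: lyn as one member of a kinase panel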
[3] = molecular target: Cyclin-dependent kinase 7 (Homo sapiens, UniProt P50613); type: functional;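 note: value comes from a kinome-wide kinase profiling panel in which CDK7 is one member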
Cyclin-dependent kinase 7, sequence (P50613 whole entry): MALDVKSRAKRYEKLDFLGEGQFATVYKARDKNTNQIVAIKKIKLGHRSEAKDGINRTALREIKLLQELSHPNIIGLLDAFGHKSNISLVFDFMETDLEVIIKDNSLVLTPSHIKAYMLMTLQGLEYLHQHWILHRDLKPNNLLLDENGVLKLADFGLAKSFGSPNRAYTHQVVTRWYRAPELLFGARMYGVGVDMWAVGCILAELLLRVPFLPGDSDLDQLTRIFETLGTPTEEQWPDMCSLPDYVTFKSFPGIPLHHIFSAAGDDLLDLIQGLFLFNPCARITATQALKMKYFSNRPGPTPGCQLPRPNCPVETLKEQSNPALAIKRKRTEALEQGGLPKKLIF

[4] = molecular target: Fibroblast growth factor receptor 1 (Homo sapiens, UniProt P11362); type: functional
[5] = molecular target: Proto-oncogene tyrosine-protein kinase ROS (Homo sapiens, UniProt P08922); type: functional;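 note: ROS1 tested as one member of a kinome-wide kinase panel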
[6] = molecular target: Epidermal growth factor receptor (Homo sapiens, UniProt P00533)
Epidermal growth factor receptor, sequence (P00533 whole entry): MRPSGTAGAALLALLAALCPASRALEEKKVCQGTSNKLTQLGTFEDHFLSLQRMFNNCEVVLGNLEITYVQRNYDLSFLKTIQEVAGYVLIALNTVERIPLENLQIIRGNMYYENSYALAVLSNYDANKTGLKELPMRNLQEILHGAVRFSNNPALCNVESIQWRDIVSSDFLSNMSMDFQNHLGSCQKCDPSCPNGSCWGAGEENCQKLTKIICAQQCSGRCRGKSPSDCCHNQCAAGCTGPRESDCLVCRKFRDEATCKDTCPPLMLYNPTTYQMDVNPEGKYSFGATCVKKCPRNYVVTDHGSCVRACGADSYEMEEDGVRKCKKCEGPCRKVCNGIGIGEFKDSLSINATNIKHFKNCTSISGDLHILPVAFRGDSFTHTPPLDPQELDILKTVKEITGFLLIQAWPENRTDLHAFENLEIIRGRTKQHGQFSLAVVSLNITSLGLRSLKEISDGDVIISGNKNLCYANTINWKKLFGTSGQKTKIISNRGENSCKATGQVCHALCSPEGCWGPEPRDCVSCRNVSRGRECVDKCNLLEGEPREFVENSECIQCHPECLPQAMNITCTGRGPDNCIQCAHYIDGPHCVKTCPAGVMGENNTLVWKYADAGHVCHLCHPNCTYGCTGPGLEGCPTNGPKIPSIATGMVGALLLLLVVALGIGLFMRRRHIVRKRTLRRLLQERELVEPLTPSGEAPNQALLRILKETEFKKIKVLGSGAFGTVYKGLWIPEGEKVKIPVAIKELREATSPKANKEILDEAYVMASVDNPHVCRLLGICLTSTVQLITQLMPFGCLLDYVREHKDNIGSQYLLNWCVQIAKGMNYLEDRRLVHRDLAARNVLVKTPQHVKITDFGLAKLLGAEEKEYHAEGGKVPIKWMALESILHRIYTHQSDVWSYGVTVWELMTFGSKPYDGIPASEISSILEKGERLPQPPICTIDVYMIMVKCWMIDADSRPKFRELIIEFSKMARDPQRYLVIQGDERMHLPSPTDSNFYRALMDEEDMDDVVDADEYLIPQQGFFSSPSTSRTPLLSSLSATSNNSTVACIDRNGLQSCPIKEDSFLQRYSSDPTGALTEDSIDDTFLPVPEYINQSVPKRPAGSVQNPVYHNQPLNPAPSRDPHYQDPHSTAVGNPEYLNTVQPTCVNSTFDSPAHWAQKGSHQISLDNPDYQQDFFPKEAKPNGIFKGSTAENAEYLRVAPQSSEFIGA

[7] = molecular target: Vascular endothelial growth factor receptor 1 (Homo sapiens, UniProt P17948); type: functional;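 note: measured within a kinome-wide profiling panel, FLT1 as the panel member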
Vascular endothelial growth factor receptor 1, sequence (P17948 whole entry): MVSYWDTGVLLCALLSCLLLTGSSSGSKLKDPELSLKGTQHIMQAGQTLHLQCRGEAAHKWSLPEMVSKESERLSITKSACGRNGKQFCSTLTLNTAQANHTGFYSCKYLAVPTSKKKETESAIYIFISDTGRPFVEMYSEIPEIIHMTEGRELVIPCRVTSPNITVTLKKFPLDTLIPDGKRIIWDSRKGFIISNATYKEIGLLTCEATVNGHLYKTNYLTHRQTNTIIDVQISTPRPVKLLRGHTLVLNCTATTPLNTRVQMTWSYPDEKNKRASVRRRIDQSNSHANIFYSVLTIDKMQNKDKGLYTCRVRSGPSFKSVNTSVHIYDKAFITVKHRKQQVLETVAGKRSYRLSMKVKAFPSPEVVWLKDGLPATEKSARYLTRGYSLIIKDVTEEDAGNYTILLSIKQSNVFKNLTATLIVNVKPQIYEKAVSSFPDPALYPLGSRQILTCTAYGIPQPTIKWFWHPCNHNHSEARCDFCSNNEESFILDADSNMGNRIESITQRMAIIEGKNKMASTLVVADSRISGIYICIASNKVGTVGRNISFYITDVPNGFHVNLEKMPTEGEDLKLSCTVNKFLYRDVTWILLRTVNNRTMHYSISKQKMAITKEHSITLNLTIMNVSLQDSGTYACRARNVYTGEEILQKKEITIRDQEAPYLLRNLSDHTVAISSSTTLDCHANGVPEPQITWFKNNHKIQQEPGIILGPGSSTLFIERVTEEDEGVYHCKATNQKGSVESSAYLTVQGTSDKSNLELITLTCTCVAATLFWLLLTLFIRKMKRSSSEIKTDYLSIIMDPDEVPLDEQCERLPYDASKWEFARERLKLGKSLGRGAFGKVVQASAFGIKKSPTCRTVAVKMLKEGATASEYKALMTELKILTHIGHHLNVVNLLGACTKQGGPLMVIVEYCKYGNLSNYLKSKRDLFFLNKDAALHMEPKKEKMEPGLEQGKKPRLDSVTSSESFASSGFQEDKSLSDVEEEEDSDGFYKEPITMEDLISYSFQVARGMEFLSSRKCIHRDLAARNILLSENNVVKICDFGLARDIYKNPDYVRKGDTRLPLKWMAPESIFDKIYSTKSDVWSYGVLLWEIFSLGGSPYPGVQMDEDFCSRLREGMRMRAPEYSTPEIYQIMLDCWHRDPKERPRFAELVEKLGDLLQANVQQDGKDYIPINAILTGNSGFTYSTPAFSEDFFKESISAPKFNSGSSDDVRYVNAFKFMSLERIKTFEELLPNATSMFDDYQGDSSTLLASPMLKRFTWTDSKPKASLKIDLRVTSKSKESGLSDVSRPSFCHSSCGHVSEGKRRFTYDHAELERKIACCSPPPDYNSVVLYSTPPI

[8] = molecular target: High affinity nerve growth factor receptor (Homo sapiens, UniProt P04629); type: functional;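 note: NTRK1 tested as one member of a kinome-wide profiling panel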
High affinity nerve growth factor receptor, sequence (P04629 whole entry): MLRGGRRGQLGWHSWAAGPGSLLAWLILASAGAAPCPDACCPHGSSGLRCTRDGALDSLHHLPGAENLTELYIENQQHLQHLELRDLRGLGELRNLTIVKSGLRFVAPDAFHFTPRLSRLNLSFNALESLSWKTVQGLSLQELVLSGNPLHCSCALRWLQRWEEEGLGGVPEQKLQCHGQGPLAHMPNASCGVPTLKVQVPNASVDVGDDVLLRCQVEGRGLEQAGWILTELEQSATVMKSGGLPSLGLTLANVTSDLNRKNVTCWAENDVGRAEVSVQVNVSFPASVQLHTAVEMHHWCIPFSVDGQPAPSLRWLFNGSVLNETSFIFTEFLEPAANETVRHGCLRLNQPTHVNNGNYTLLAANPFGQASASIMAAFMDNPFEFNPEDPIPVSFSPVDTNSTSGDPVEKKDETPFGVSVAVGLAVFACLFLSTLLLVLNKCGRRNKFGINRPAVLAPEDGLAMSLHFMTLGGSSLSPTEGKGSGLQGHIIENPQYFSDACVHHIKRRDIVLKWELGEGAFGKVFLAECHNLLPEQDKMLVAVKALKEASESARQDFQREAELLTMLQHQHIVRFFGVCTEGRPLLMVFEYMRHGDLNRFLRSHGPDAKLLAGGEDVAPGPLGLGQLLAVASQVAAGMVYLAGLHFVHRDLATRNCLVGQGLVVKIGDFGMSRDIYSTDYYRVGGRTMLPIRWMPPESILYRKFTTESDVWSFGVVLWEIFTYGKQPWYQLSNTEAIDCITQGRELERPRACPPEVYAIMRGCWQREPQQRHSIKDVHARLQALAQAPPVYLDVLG

[9] = molecular target: Calcium/calmodulin-dependent protein kinase type 1 (Homo sapiens, UniProt Q14012); type: functional
Calcium/calmodulin-dependent protein kinase type 1, sequence (Q14012 whole entry): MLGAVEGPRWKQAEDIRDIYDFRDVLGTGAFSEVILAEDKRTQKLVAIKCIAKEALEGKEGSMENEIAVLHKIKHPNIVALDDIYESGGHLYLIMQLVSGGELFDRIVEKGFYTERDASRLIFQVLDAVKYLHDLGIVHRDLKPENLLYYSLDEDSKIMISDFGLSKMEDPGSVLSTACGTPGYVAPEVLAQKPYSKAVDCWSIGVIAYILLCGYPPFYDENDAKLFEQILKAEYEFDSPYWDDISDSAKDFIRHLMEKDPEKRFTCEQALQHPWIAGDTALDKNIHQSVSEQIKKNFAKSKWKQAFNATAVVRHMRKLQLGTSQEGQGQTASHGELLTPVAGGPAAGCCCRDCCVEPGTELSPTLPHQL

Activated CDC42 kinase 1 = Activated CDC42 kinase 1 (Homo sapiens, UniProt Q07912); assay: Navigating the Kinome. Panel member name: ACK1; type: functional
[10] = molecular target: Serine/threonine-protein kinase PAK 4 (Homo sapiens, UniProt O96013); type: functional;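 note: value obtained within a kinome profiling panel in which PAK4 was one of the panel members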
[11] = molecular target: Proto-oncogene tyrosine-protein kinase receptor Ret (Homo sapiens, UniProt P07949); type: functional;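 note: measured within a kinome-wide profiling panel, RET as the panel member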
[12] = molecular target: Bifunctional protein GlmU (Mycobacterium tuberculosis, UniProt P9WMN3); assay: Inhibitors of Mycobacterial Glucosamine-1-phosphate acetyl transferase (GlmU). Secondary screen.; set-up: species or system Mycobacterium tuberculosis H37Rv
Bifunctional protein GlmU, sequence (P9WMN3 whole entry): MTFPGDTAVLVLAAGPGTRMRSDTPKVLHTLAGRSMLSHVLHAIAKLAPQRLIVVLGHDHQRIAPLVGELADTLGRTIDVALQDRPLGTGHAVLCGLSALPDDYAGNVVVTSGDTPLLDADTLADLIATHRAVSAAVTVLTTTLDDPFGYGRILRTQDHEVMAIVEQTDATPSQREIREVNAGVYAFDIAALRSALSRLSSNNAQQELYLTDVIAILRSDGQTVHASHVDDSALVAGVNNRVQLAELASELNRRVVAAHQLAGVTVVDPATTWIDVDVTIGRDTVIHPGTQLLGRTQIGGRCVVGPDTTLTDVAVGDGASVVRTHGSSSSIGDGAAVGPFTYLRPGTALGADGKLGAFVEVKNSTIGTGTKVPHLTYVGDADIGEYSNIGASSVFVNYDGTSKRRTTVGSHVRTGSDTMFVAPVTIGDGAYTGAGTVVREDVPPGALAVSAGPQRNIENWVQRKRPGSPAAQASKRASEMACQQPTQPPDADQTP

HeLa = assay: viability loss in HeLa cells – cell-based, 24 h, cherry-picked samples, cytotoxicity control, dose response (AID 504726); type: functional; settings: Homo sapiens;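 note: potency for cytotoxicity as loss of luminescence signal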
[13] = viability loss in THP-1 monocytes – THP-1 cells, cytotoxicity control for Vif-APOBEC3G degradation inhibitor project, dose response (AID 1117359); type: functional; settings: THP-1
[14] = molecular target: Intestinal-type alkaline phosphatase (Homo sapiens, UniProt P09923); assay: inhibition of human intestinal alkaline phosphatase – biochemical, dose response (AID 488876); type: functional
[15] = molecular target: Intestinal-type alkaline phosphatase (Mus musculus, UniProt P24822); assay: PubChem AID 488874; type: functional
BJ = assay: cells; type: functional, cell-based; settings: Homo sapiens
[16] = reduction of Shn3 3'UTR-driven luciferase in osteoblasts – cell-based, Clone20 osteoblasts, firefly luciferase, cherry-picked, dose response (AID 624132); type: functional;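 note: firefly luciferase luminescence from reporter carrying the Shn3 3'UTR in osteoblasts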

Tyrosine-protein kinase Lyn, sequence (P07948 whole entry): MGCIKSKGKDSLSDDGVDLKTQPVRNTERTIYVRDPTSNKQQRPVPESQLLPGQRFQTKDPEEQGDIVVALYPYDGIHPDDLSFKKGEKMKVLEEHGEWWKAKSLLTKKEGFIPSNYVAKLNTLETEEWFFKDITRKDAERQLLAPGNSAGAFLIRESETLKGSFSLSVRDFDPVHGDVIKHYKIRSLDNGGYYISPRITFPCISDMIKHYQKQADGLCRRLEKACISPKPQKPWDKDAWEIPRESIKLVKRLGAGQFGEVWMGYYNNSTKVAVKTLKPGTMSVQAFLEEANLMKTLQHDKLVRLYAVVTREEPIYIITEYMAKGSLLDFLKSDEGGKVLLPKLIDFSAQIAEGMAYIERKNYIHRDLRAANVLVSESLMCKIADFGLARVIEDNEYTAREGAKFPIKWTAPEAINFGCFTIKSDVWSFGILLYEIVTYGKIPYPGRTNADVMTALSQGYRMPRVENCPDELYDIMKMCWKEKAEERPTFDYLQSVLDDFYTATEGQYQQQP

## Nc1noc2cccc(-c3cccc(O)c3)c12
[1]
  Ki: > 1.58 µM (inactive)
[2]
  Ki: > 1.58 µM (inactive)
[3]
  Ki: 20 µM (active)
[4]
  Ki: 15.8 µM (active)
[5]
  Ki: > 2 µM (inactive)
[6]
  Ki: > 2 µM (inactive)
[7]
  Ki: > 10 µM (inactive)
[8]
  Ki: > 2.51 µM (inactive)
[9]
  Ki: > 5.01 µM (inactive)
Activated CDC42 kinase 1
  Ki: 25.1 µM (active)
[10]
  Ki: > 5.01 µM (inactive)
[11]
  Ki: 794 nM (active)

## O=C1NC(=S)S/C1=C\C=C\c1ccc([N+](=O)[O-])o1
[12]
  IC50: 19.1 µM (active)
HeLa
  AC50: 12.5 µM (active)
[13]
  CC50: 4.04 µM (active)

## O=C(NN1C(=O)CSC1=S)C(=O)NN1C(=O)CSC1=S
[14]
  IC50: > 100 µM (inactive)
[15]
  IC50: 3.84 µM (active)

## COC(=O)C1CN(C#N)N(c2ccc(Cl)cc2)C12c1ccccc1-c1ccccc12 (centres undefined)
BJ
  EC50: 2.9 µM (active)
[16]
  AC50: < 260 nM (active)
